Measurements from US8178077B2, “Drug development target protein and target gene, and method of screening” (Reverse Proteomics Research Institute Co., Ltd., priority 2004, dated 2012).

Molecular target: T1, FLJ39196 clone-derived protein (human neurocalcin δ) (Homo sapiens, UniProt P61601)
T1 construct: A human full-length cDNA clone was expressed as a protein with an N-terminal His tag; His tag (N); made in house; host or cells: Escherichia coli BL21star(DE3)pLysS (pDEST17 Gateway expression plasmid)
Test: SEC/MS interaction analysis (size exclusion spin column and mass analysis) with FLJ39196 clone-derived protein
Format: binding
Source text: To analyze the interactions between commonly used drugs and proteins expressed from human full-length cDNA clones while keeping both the proteins and the compounds in non-modified, non-immobilized state, size exclusion chromatography (SEC) and mass analysis were used in combination (FIGS. 1, 2). The specific procedures are shown below.
The compound-protein mixture prepared in step 1 was subjected to chromatography using an SEC column, the compound and the protein were separated by SEC, and the compound that interacted with the bound compound or protein contained in the protein fraction was analyzed using a mass analyzer.
Protein concentrations were measured using BCA Protein Assay (PIERCE), in consideration of the purity calculated by SDS-PAGE.
Mass analysis was performed using LCQ DECA XP (Thermoelectron) or Q-TOFmicro (Micromass), equipped with an ESI probe. The LC pump used was Agilent 1100 (Yokogawa Analytical Systems), and the autosampler used was HTC-PAL (CTC Analytics) equipped with a cooling stacker.
In the SEC method using 384-well spin columns, Unifilter 100 (Whatman), packed with 10 μL (dry volume) of Bio-Gel P6 (BIO-RAD) and swollen with milliQ water, was used as the SEC column. 13.3 μL of a protein-free reference standard or a 25 μM protein standard and 0.7 μL of a multiplied liquid comprising 25 μM of each pharmaceutical compound (5% DMSO aqueous solution) were mixed; 9 μL of this mixture was aliquoted into the SEC spin columns. The SEC spin column was mounted on an acetonitrile-aliquoted 384-well U-bottom plate and centrifuged; the SEC spin column filtrate, which is a protein fraction, was retrieved in 50% acetonitrile. The protein precipitate produced by the acetonitrile was removed via centrifugation and filtration for deproteinization; the resulting filtrate was concentrated by centrifugation and re-dissolved in 10 μL of 50% methanol to obtain a mass analysis sample. The mobile phase supplied to the mass analyzer was 0.1% formic acid/50% methanol solution in the positive ion mode, and 0.1% ammonia/50% methanol solution in the negative ion mode; these mobile phases were used at a flow rate of 40 μL/min. 2-μL of mass analysis samples were injected using an autosampler at 2-minute intervals; the mass spectral intensity of the compound was measured to obtain the spectral intensity of the pharmaceutical compound contained in the SEC spin column filtrate (protein fraction eluted from SEC).

[1] = protein 0 μM (protein-free reference), compound 1 μM
[2] = protein 0 μM (protein-free reference), compound 10 μM
[3] = protein 0 μM (protein-free reference), compound 100 μM
[4] = protein 0 μM (protein-free reference), compound 250 μM
[5] = protein 23.75 μM, compound 1 μM
[6] = protein 23.75 μM, compound 10 μM
[7] = protein 23.75 μM, compound 100 μM
[8] = protein 23.75 μM, compound 250 μM
[9] = protein 47.5 μM, compound 10 μM
[10] = protein 47.5 μM, compound 100 μM
[11] = protein 47.5 μM, compound 250 μM

Row | Compound | spectral intensity of the compound in the SEC spin column filtrate (protein fraction) [1] | spectral intensity of the compound in the SEC spin column filtrate (protein fraction) [2] | spectral intensity of the compound in the SEC spin column filtrate (protein fraction) [3] | spectral intensity of the compound in the SEC spin column filtrate (protein fraction) [4] | spectral intensity of the compound in the SEC spin column filtrate (protein fraction) [5] | spectral intensity of the compound in the SEC spin column filtrate (protein fraction) [6] | spectral intensity of the compound in the SEC spin column filtrate (protein fraction) [7] | spectral intensity of the compound in the SEC spin column filtrate (protein fraction) [8] | spectral intensity of the compound in the SEC spin column filtrate (protein fraction) (protein 47.5 μM, compound 1 μM) | spectral intensity of the compound in the SEC spin column filtrate (protein fraction) [9] | spectral intensity of the compound in the SEC spin column filtrate (protein fraction) [10] | spectral intensity of the compound in the SEC spin column filtrate (protein fraction) [11]
1 | CCc1oc2ccccc2c1C(=O)c1cc(Br)c(O)c(Br)c1 [Benzbromarone] | 231212 | 300847 | 378850 | 461737 | 357666 | 1258120 | 10722991 | 19795682 | 412022 | 1942184 | 29076230 | 43413619
2 | NS(=O)(=O)c1cc2c(cc1Cl)N=C(CSCc1ccccc1)NS2(=O)=O [Benzthiazide] | 271261 | 505597 | 1323031 | 1475428 | 361168 | 1095223 | 9348303 | 25333199 | 249695 | 1261413 | 16067473 | 28434802
3 | CC(C)COCC(CN(Cc1ccccc1)c1ccccc1)N1CCCC1 (stereo not drawn) [Bepridil] | 9581826 | 14048756 | 358168208 | 1566782176 | 7408112 | 35655439 | 771184721 | 1841002486 | 7866658 | 40680909 | 1156825217 | 1990085657
4 | CC(O)(CS(=O)(=O)c1ccc(F)cc1)C(=O)Nc1ccc(C#N)c(C(F)(F)F)c1 (stereo not drawn) [Bicaltamide] | 196020 | 269681 | 3889442 | 1804944 | 264437 | 914364 | 18349511 | 53664833 | 390946 | 4168309 | 24933110 | 112816687
5 | CN(C)CC/C=C1/c2ccccc2Sc2ccc(Cl)cc21 [Chlorprothixene] | 12908294 | 15368592 | 30558420 | 80321853 | 21615977 | 31548696 | 104338961 | 243359670 | 25013147 | 52145413 | 207034486 | 433637183
6 | CC(C)[C@@]1(NC(=O)[C@@H]2C[C@@H]3c4cccc5[nH]cc(c45)C[C@H]3N(C)C2)O[C@@]2(O)[C@@H]3CCCN3C(=O)[C@H](Cc3ccccc3)N2C1=O [Dihydroergocristine] | 25663523 | 10810305 | 75466444 | 137535150 | 68120944 | 327393156 | 910395859 | 871970698 | 95970671 | 593118709 | 1961163889 | 2985742521
7 | CC(NCCC(c1ccccc1)c1ccccc1)c1ccccc1 (stereo not drawn) [Fendiline] | 18341826 | 21106520 | 134902492 | 315067466 | 15884361 | 18323956 | 118321460 | 396979100 | 24572438 | 26691498 | 256481478 | 565679716
8 | OCCN1CCN(CC/C=C2/c3ccccc3Sc3ccc(C(F)(F)F)cc32)CC1 [Flupentixol cis-(Z)] | 57845690 | 59201705 | 138331819 | 1019443291 | 38801184 | 66148127 | 474717521 | 1437323119 | 54783295 | 82852252 | 1301876646 | 1766098462
9 | Cc1cc(-c2ccccc2)nnc1NCCN1CCOCC1 [Minaprine] | 15652447 | 95722839 | 530918568 | 1025547751 | 10946604 | 88615018 | 727082711 | 1272226745 | 10185140 | 49245292 | 427303459 | 1448860391
